What was measured:
[1] = molecular target: Cytochrome P450 3A4 (Homo sapiens, UniProt P08684); experiment: Inhibition of CYP3A4 activity in human hepatocytes after 30 mins by liquid chromatography/tandem mass spectroscopy; format: ADME, cell-based, Hepatocyte
[2] = test system: Hepatocyte; experiment: Cytotoxicity against human hepatocytes assessed as loss of nuclei after 24 hrs at 50 to 100 uM; format: cell-based
[3] = test system: Hepatocyte; experiment: Cytotoxicity against human hepatocytes assessed as cytoplasm granulation with vacuoles after 24 hrs at 50 to 100 uM; format: cell-based
[4] = Cytotoxicity against human hepatocytes assessed as cell viability after 24 hrs at 100 uM by ATP detection based assay; design: species or system Hepatocyte; details: read-out: Activity
[5] = test system: Hepatocyte; experiment: Cytotoxicity against human hepatocytes assessed as reduction in cell viability after 4 hrs by ATP detection based assay
[6] = test system: Hepatocyte; experiment: Cytotoxicity against human hepatocytes assessed as reduction in cell viability after 24 hrs by ATP detection based assay
[7] = test system: Hepatocyte; experiment: Cytotoxicity against human hepatocytes assessed as reduction in cell viability after 24 hrs by LDH release assay; format: cell-based
[8] = test system: Hepatocyte; experiment: Induction of apoptosis in human hepatocytes assessed as caspase 3/7 activation by caspase-Glo 3/7 assay; format: cell-based
[9] = test system: CYP3A4; experiment: Induction of CYP3A4 mRNA expression in human hepatocytes at 10 uM after 48 hrs relative to untreated control; format: ADME, cell-based, Hepatocyte; details: read-out: FC
[10] = test system: CYP2B6; experiment: Induction of CYP2B6 mRNA expression in human hepatocytes at 10 uM after 48 hrs relative to untreated control; format: ADME, cell-based, Hepatocyte; details: read-out: FC
[11] = test system: SULT2A1; experiment: Induction of SULT2A1 mRNA expression in human hepatocytes at 10 uM after 48 hrs relative to untreated control; format: cell-based, Hepatocyte; details: read-out: FC
[12] = molecular target: T1, CYP1A2 (Homo sapiens, UniProt P05177); experiment: Time dependent inhibition of CYP1A2 activity in human hepatocytes after 30 mins by liquid chromatography/tandem mass spectroscopy; format: ADME, cell-based, Hepatocyte
T1 sequence (P05177 whole entry): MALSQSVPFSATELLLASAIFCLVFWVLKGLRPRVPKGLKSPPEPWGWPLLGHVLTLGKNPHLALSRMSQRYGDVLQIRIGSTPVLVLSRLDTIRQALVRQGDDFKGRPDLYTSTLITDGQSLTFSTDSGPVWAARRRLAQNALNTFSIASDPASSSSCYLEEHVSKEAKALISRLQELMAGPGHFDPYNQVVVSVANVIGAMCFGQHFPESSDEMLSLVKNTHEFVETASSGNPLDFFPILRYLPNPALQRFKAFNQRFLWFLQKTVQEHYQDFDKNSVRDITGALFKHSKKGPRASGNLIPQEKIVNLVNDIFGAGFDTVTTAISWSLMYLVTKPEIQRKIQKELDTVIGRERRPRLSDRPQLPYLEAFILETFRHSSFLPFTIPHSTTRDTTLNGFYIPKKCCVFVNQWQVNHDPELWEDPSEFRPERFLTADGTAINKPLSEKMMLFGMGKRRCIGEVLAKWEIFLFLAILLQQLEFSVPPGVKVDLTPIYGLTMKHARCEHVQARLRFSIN

[13] = molecular target: T2, CYP2B6 (Homo sapiens, UniProt P20813); experiment: Time dependent inhibition of CYP2B6 activity in human hepatocytes after 30 mins by liquid chromatography/tandem mass spectroscopy; format: ADME, cell-based, Hepatocyte
T2 sequence (P20813 whole entry): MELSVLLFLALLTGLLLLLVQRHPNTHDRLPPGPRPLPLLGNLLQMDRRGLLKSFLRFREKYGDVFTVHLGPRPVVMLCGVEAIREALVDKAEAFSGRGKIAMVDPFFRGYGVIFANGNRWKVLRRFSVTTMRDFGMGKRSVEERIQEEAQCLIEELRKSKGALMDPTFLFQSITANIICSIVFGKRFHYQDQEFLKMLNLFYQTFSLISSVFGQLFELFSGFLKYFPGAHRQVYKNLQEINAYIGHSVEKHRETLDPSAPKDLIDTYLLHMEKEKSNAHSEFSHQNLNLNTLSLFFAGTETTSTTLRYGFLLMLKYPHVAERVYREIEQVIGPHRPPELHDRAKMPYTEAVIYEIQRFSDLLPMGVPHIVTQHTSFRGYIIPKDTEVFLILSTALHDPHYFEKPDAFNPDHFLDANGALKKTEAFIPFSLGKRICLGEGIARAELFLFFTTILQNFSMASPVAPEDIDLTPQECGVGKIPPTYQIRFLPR

[14] = molecular target: T3, CYP2C8 (Homo sapiens, UniProt P10632); experiment: Time dependent inhibition of CYP2C8 activity in human hepatocytes after 30 mins by liquid chromatography/tandem mass spectroscopy; format: ADME, cell-based, Hepatocyte
T3 sequence (P10632 whole entry): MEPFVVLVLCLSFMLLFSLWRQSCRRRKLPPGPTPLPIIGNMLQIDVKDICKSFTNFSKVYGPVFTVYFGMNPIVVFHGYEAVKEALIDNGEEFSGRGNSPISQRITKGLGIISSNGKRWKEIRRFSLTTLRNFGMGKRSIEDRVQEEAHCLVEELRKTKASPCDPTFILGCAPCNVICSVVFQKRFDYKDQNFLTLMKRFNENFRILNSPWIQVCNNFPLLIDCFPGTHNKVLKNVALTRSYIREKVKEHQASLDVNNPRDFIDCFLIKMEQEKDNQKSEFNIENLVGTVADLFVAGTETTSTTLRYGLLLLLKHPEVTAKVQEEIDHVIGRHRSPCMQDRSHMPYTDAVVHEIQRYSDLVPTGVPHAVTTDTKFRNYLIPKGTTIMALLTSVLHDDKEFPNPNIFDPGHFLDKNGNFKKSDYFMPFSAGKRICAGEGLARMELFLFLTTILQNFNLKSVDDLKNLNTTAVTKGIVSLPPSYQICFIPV

[15] = molecular target: CYP2C9 (Homo sapiens, UniProt P11712); experiment: Time dependent inhibition of CYP2C9 activity in human hepatocytes after 30 mins by liquid chromatography/tandem mass spectroscopy; format: ADME, cell-based, Hepatocyte
CYP2C9, sequence (P11712 whole entry): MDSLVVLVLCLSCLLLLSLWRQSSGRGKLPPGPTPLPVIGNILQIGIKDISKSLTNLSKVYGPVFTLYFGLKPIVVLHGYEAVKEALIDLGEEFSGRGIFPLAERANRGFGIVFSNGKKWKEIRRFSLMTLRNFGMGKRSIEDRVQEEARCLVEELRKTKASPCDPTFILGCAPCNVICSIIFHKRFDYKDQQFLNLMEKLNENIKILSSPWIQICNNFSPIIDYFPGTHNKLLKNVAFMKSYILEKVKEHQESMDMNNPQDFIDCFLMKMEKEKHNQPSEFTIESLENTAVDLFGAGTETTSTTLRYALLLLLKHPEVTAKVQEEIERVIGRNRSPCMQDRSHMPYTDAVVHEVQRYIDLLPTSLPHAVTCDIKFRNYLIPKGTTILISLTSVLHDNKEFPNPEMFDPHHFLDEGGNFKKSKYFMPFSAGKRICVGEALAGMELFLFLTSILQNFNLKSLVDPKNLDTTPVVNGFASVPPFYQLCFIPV

[16] = molecular target: CYP2C19 (Homo sapiens, UniProt P33261); experiment: Time dependent inhibition of CYP2C19 activity in human hepatocytes after 30 mins by liquid chromatography/tandem mass spectroscopy; format: ADME, cell-based, Hepatocyte
CYP2C19, sequence (P33261 whole entry): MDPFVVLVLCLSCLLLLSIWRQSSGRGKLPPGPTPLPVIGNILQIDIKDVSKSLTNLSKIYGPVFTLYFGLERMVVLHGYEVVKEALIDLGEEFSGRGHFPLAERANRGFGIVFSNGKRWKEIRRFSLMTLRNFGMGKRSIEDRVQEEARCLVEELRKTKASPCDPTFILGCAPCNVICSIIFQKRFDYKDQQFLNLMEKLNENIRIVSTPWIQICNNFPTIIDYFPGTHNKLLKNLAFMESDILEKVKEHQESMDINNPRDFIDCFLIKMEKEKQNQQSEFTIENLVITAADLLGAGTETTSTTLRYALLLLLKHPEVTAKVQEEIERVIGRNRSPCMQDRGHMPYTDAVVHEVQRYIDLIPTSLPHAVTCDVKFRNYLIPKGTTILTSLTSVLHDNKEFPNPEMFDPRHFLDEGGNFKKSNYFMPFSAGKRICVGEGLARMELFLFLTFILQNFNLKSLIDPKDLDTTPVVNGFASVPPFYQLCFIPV

[17] = molecular target: CYP2D6 (Homo sapiens, UniProt P10635); experiment: Time dependent inhibition of CYP2D6 activity in human hepatocytes after 30 mins by liquid chromatography/tandem mass spectroscopy; format: ADME, cell-based, Hepatocyte
CYP2D6, sequence (P10635 whole entry): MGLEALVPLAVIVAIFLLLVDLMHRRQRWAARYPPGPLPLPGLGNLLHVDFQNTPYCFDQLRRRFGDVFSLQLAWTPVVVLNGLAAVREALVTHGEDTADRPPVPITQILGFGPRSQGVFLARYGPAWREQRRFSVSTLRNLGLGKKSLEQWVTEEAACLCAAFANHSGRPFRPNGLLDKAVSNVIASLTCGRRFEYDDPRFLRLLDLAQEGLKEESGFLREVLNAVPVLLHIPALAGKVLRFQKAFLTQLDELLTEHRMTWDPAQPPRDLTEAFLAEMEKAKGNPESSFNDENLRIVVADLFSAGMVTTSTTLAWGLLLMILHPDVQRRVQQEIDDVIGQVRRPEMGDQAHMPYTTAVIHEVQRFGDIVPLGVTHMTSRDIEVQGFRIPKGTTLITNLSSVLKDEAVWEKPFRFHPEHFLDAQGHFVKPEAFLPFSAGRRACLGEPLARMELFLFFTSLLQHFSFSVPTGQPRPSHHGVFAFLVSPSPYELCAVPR

[18] = molecular target: CYP2E1 (Homo sapiens, UniProt P05181); experiment: Time dependent inhibition of CYP2E1 activity in human hepatocytes after 30 mins by liquid chromatography/tandem mass spectroscopy; format: ADME, cell-based, Hepatocyte
CYP2E1, sequence (P05181 whole entry): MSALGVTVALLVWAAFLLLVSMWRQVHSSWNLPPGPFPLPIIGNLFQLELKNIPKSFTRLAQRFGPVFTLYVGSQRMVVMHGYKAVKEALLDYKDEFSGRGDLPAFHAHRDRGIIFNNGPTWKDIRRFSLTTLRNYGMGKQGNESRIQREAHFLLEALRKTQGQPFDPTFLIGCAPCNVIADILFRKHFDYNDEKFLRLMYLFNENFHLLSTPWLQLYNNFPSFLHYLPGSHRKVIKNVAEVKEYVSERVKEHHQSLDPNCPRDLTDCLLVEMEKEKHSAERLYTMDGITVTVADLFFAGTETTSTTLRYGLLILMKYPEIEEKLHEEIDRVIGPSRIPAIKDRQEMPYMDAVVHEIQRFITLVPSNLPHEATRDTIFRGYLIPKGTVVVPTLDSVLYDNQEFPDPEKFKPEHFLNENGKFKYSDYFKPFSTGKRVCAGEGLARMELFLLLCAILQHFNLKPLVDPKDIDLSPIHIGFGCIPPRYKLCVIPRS

[19] = molecular target: CYP3A4 (Homo sapiens, UniProt P08684); experiment: Time dependent inhibition of CYP3A4 activity in human hepatocytes after 30 mins by liquid chromatography/tandem mass spectroscopy; format: ADME, cell-based, Hepatocyte
CYP3A4 (Homo sapiens, UniProt P08684), sequence (P08684 whole entry): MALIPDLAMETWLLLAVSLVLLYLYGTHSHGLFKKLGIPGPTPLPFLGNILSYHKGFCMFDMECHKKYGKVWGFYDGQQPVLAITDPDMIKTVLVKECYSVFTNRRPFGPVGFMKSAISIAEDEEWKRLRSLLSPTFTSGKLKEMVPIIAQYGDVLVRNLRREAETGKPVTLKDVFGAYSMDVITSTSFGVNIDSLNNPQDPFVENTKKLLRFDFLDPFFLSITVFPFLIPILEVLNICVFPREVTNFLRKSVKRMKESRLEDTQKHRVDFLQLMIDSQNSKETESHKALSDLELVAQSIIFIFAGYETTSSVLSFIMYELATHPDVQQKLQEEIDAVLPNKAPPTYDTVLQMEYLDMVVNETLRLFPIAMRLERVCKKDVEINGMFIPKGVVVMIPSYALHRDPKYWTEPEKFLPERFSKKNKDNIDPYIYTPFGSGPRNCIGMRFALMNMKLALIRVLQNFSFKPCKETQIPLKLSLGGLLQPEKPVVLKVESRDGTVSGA

[20] = molecular target: Cytochrome P450 2C9 (Homo sapiens, UniProt P11712); experiment: Inhibition of CYP2C9 activity in human hepatocytes after 30 mins by liquid chromatography/tandem mass spectroscopy; format: ADME, cell-based, Hepatocyte
Cytochrome P450 2C9, sequence (P11712 whole entry): as the sequence (P11712 whole entry) above

[21] = test system: Hepatocyte; experiment: Cytotoxicity against human hepatocytes assessed as reduction in cell viability after 4 hrs by LDH release assay; format: cell-based

Cytochrome P450 3A4, sequence (P08684 whole entry): as the sequence (P08684 whole entry) above

Q: What does the source list for `CC(C)c1cc2c(c(O)c1O)[C@@]1(C(=O)O)CCCC(C)(C)[C@@H]1CC2` [CARNOSIC ACID]?
A: Ki [1]: 4.3 µM; Activity [2]: Toxic; Activity [3]: Toxic; viability at 24 h, 100 µM [4]: < 10%; EC50 [5]: 95.7 µM; EC50 [6]: 94.8 µM; EC50 [7]: Not Active; Activity [8]: Non-toxic; fold induction at 48 h, 10 µM [9]: 13.9; fold induction at 48 h, 10 µM [10]: 4.5; fold induction at 48 h, 10 µM [11]: 2.4; inhibition at 0.5 h [12]: < 11%; inhibition at 0.5 h [13]: < 11%; inhibition at 0.5 h [14]: < 11%; inhibition at 0.5 h [15]: < 11%; inhibition at 0.5 h [16]: < 11%; inhibition at 0.5 h [17]: < 11%; inhibition at 0.5 h [18]: < 11%; inhibition at 0.5 h [19]: < 11%; Ki [20]: 9.2 µM

Q: Which results are given for `CC/C(=C(\c1ccccc1)c1ccc(OCCN(C)C)cc1)c1ccccc1` [TAMOXIFEN]?
A: EC50 [5]: 71.4 µM; EC50 [6]: 34.4 µM; EC50 [7]: Not Active; EC50 [21]: 67.6 µM; Activity [8]: Toxic
